The values below come from patent publication US4927831A, “Spiro-isoquinoline-pyrrolidine tetrones and analogs thereof useful as aldose reductase inhibitors” (American Home Products, priority 1989, dated 1990).

As a reminder, the inhibition is the change of the read-out against control, counted positive when it falls.

Assay [1] deals with dulcitol accumulation in the sciatic nerve. Nature of the assay: % lowering of dulcitol accumulation in sciatic nerve (N) of galactosemic rats. In kind it is in vivo, Sprague-Dawley. On the set-up: key: NS: statistically nonsignificant change. To be noted: 4 days. The source says:
(§1) The aldose reductase inhibiting property of the compounds of this invention and the utilization of the compounds in preventing, diminishing and alleviating diabetic complications are demonstrable in experiments using galactosemic rats, see Dvornik et al., Science, 182, 1146 (1973). Such experiments are exemplified hereinbelow after the listing of the following general comments pertaining to these experiments:
(§2) (a) Four or more groups of six male rats, 50-70 g, Sprague-Dawley strain, were used. The first group, the control group, was fed a mixture of laboratory chow (rodent Laboratory Chow, Purina) and glucose at 20% (w/w %) concentration. An untreated galactosemic group was fed a similar diet in which galactose was substituted for glucose. The third group was fed a diet prepared by mixing a given amount of the test compound with the galactose containing diet. The concentration of galactose in the diet of the treated groups was the same as that for the untreated galactosemic group.
(§3) (b) After four days, the animals were killed by euthanization. Both the lens and sciatic nerve were removed, weighed and stored frozen for polyol determination.
(§4) (c) The polyol determination was performed by a modification of the procedure of M. Kraml and L. Cosyns, Clin. Biochem., 2,373 (1969). Only two minor reagent changes were made: (a) The rinsing mixture was an aqueous 5% (w/v) trichloroacetic acid solution and (b) the stock solution was prepared by dissolving 25 mg of dulcitol in 100 ml of an aqueous trichloroacetic acid solution. [N.B.: For each experiment the average value found in the tissue from rats fed the glucose diet was subtracted from the individual values found in the corresponding tissue in galactose-fed rats to obtain the amount of polyol accumulated.] The aldose reductase inhibiting effects of the compounds of formula (I) were also tested by employing an in vitro testing procedure similar to that described by S. Hayman and J.H. Kinoshita, J. Biol. Chem., 240,877 (1965). In the present case the procedure of Hayman and Kinoshita was modified in that the final chromatography step was omitted in the preparation of the enzyme from bovine lens.
(§5) The figures under L and N represent the percentage decrease of dulcitol accumulation in the tissues of the lens and sciatic nerve, respectively, for treated rats as compared to untreated rats.

A further assay concerns the target T1, aldose reductase (Bos taurus, UniProt P16116).
T1 construct: preparation of the enzyme from bovine lens; from tissue; host or cells: bovine lens
In words: in vitro aldose reductase inhibition (modified Hayman and Kinoshita; enzyme from bovine lens). In kind it is biochemical. To be noted: read-out: % Inhibition IN VITRO. The protocol: Only two minor reagent changes were made: (a) The rinsing mixture was an aqueous 5% (w/v) trichloroacetic acid solution and (b) the stock solution was prepared by dissolving 25 mg of dulcitol in 100 ml of an aqueous trichloroacetic acid solution. [N.B.: For each experiment the average value found in the tissue from rats fed the glucose diet was subtracted from the individual values found in the corresponding tissue in galactose-fed rats to obtain the amount of polyol accumulated.] […] In the present case the procedure of Hayman and Kinoshita was modified in that the final chromatography step was omitted in the preparation of the enzyme from bovine lens. […] The figures under L and N represent the percentage decrease of dulcitol accumulation in the tissues of the lens and sciatic nerve, respectively, for treated rats as compared to untreated rats.

The test system of assay [2] is dulcitol accumulation in the lens. Nature of the assay: % lowering of dulcitol accumulation in lens (L) of galactosemic rats. In kind it is in vivo, Sprague-Dawley. More on the design: key: NS: statistically nonsignificant change. Particulars: 4 days.
Excerpt: as §1, §2, §3, §4, §5

Values joined by “and” are separate entries in the source; they are usually repeats but may differ in a detail not shown here. Identical values can stand only once. Like-named read-outs stand apart in the source and are kept apart here.

Consider `CN1C(=O)c2ccc(Cl)cc2C2(CC(=O)NC2=O)C1=O` (stereo not drawn) [6-Cl H CH3, 6-Chloro-2-methylspiro[isoquinoline-4(1H)3'-pyrrolidine]-1,2',3,5'(2H)-tetrone], for which the “% Lowering Dulcitol Accumulation IN VIVO, N (sciatic nerve)” value in assay [1] (1.0 mg/kg in diet) and in assay [1] (3.0 mg/kg in diet) was 75% throughout. The inhibition at 0.04 µM on aldose reductase (4 × 10^-8 M) was determined as 43%. In addition, the inhibition at 0.1 µM at aldose reductase (10^-7 M) came out at 73%. Moreover, the inhibition at 1 µM on aldose reductase stood at 94%. The inhibition at 10 µM on aldose reductase was found to be 93%. In addition, the “% Lowering Dulcitol Accumulation IN VIVO, L (lens)” value in assay [2] (1.0 mg/kg in diet) is reported as 33%; in assay [2] (3.0 mg/kg in diet), 59%.
As to `O=C1C[C@]2(C(=O)N1)C(=O)N(Cc1ccc(Br)cc1F)C(=O)c1ccc(F)cc12` [(S)-(-)-[2-[(4-Bromo-2-fluorophenyl)methyl]-6-fluoro]spiro[isoquinoline-4(1H),3'-pyrrolidine]-1,2',3,5'(2H)-tetrone], the “% Lowering Dulcitol Accumulation IN VIVO, N (sciatic nerve)” value in assay [1] (0.4 mg/kg in diet) was found to be 40%. The “% Lowering Dulcitol Accumulation IN VIVO, N (sciatic nerve)” value in assay [1] (0.8 mg/kg in diet) amounted to 70%. Further, on aldose reductase, the inhibition at 0.04 µM came to 29%, the inhibition at 0.1 µM was determined as 46%, the inhibition at 1 µM is 97% and the inhibition at 10 µM is 98%. The “% Lowering Dulcitol Accumulation IN VIVO, L (lens)” value in assay [2] (0.4 mg/kg in diet) is on record as “NS”. Also, the “% Lowering Dulcitol Accumulation IN VIVO, L (lens)” value in assay [2] (0.8 mg/kg in diet) is given as 21%.
On to `O=C1CC2(C(=O)N1)C(=O)N(Cc1ccc(Br)cc1F)C(=O)c1cc(Cl)ccc12` (stereo not drawn) [[2-[(4-Bromo-2-fluorophenyl)methyl]-7-chloro]spiro[isoquinoline-4(1H),3'-pyrrolidine]-1,2',3,5'(2H)-tetrone], for which, in assay [1] (0.6 mg/kg in diet), the “% Lowering Dulcitol Accumulation IN VIVO, N (sciatic nerve)” value came to 63%. For the same compound, on aldose reductase (4 × 10^-8 M), the inhibition at 0.04 µM stood at 25%. For the same compound, on aldose reductase (10^-6 M), the inhibition at 1 µM was 92%. Also, the inhibition at 0.1 µM at aldose reductase (10^-7 M) came out at 42%. Moreover, the inhibition at 10 µM on aldose reductase was determined as 96%. In addition, in assay [2] (0.6 mg/kg in diet), the “% Lowering Dulcitol Accumulation IN VIVO, L (lens)” value is listed as “NS”.
On to `CCCCN1C(=O)c2ccccc2C2(CC(=O)NC2=O)C1=O` (stereo not drawn) [H H (CH2)3 CH3, 2-Butylspiro[isoquinoline-4(1H),3'-pyrrolidine]-1,2',3,5'(2H)-tetrone], for which the “% Lowering Dulcitol Accumulation IN VIVO, N (sciatic nerve)” value in assay [1] (10.0 mg/kg in diet) is on record as “NS”. The inhibition at 0.04 µM on aldose reductase (4 × 10^-8 M) is 19%. Besides, the inhibition at 10 µM at aldose reductase (10^-5 M) amounted to 99%. Moreover, the inhibition at 0.1 µM on aldose reductase (10^-7 M) came out at 17%. Further, the inhibition at 1 µM on aldose reductase was 86%. In assay [2] (10.0 mg/kg in diet), the “% Lowering Dulcitol Accumulation IN VIVO, L (lens)” value is reported as “NS”.
With `CN1C(=O)c2ccc(Br)cc2C2(CC(=O)NC2=O)C1=O` (stereo not drawn) [6-Br H CH3, 6-Bromo-2-methylspiro[isoquinoline-4(1H),3'-pyrrolidine]-1,2',3,5'(2H)-tetrone], the “% Lowering Dulcitol Accumulation IN VIVO, N (sciatic nerve)” value in assay [1] (1.0 mg/kg in diet) is given as 54%. The inhibition at 0.04 µM at aldose reductase (4 × 10^-8 M) is 43%. For the same compound, the inhibition at 10 µM at aldose reductase (10^-5 M) was determined as 100%. On aldose reductase (10^-6 M), the inhibition at 1 µM was determined as 100%. In addition, the inhibition at 0.1 µM at aldose reductase (10^-7 M) was determined as 85%. In addition, in assay [2] (1.0 mg/kg in diet), the “% Lowering Dulcitol Accumulation IN VIVO, L (lens)” value was “NS”.
In the case of `COc1cc2c(cc1Br)C1(CC(=O)NC1=O)C(=O)N(Cc1ccc(Br)cc1F)C2=O` (stereo not drawn) [[6-Bromo-2-[(4-bromo-2-fluorophenyl)methyl]-7-methoxy]spiro[isoquinoline-4(1H),3'-pyrrolidine]-1,2',3,5'(2H)-tetrone], the “% Lowering Dulcitol Accumulation IN VIVO, N (sciatic nerve)” value in assay [1] (0.5 mg/kg in diet) is on record as 55.2%; in assay [1] (26.4 mg/kg in diet) it was 89.5%. Further, the inhibition at 0.04 µM at aldose reductase (4 × 10^-8 M) came out at 70%. For the same compound, the inhibition at 10 µM on aldose reductase (10^-5 M) was determined as 98%. The inhibition at 1 µM on aldose reductase (10^-6 M) came out at 97%. Also, the inhibition at 0.1 µM on aldose reductase (10^-7 M) came to 88%. Further, the “% Lowering Dulcitol Accumulation IN VIVO, L (lens)” value is on record as “NS” in assay [2] (0.5 mg/kg in diet) and 48.8% in assay [2] (26.4 mg/kg in diet).
As for `O=C1CC2(C(=O)N1)C(=O)N(Cc1ccc(Br)cc1F)C(=O)c1ccc(F)cc12` (stereo not drawn) [[2-[(4-Bromo-2-fluorophenyl)methyl]-6-fluoro]spiro[isoquinoline-4(1H),3'-pyrrolidine]-1,2',3,5'(2H)-tetrone], the “% Lowering Dulcitol Accumulation IN VIVO, N (sciatic nerve)” value in assay [1] (0.3 mg/kg in diet) was 39.7%; in assay [1] (0.5 mg/kg in diet), 82.9% and 92.1%; in assay [1] (0.9 mg/kg in diet) it was 93.5%. Further, the inhibition at 0.04 µM at aldose reductase is 38%. At aldose reductase, the inhibition at 1 µM was 96%. Also, the inhibition at 10 µM on aldose reductase was 97%. For the same compound, the “% Lowering Dulcitol Accumulation IN VIVO, L (lens)” value in assay [2] (0.3 mg/kg in diet), in assay [2] (0.5 mg/kg in diet) and in assay [2] (0.9 mg/kg in diet) was “NS” in each case.
`O=C1CC2(C(=O)N1)C(=O)N(Cc1ccc(Br)cc1F)C(=O)c1ccc(Cl)cc12` (stereo not drawn) [[2-[(4-Bromo-2-fluorophenyl)methyl]-6-chloro]spiro[isoquinoline-4(1H),3'-pyrrolidine]-1,2',3,5'(2H)-tetrone]: the “% Lowering Dulcitol Accumulation IN VIVO, N (sciatic nerve)” value in assay [1] (0.6 mg/kg in diet) was 29%. The inhibition at 0.04 µM on aldose reductase (4 × 10^-8 M) was found to be 8%. At aldose reductase (10^-5 M), the inhibition at 10 µM turned out to be 97%. The inhibition at 1 µM on aldose reductase (10^-6 M) came to 92%. For the same compound, the inhibition at 0.1 µM on aldose reductase (10^-7 M) came to 55%. Moreover, the “% Lowering Dulcitol Accumulation IN VIVO, L (lens)” value in assay [2] (0.6 mg/kg in diet) stood at 9%.
With `O=C1CC2(C(=O)N1)C(=O)N(Cc1ccc(Cl)c(Cl)c1)C(=O)c1ccccc12` (stereo not drawn) [2-[(3,4-Dichlorophenyl)methyl]spiro[isoquinoline-4(1H),3'-pyrrolidine]-1,2',3,5'(2H)-tetrone], the “% Lowering Dulcitol Accumulation IN VIVO, N (sciatic nerve)” value in assay [1] (1.0 mg/kg in diet) turned out to be 64.0%; in assay [1] (3.0 mg/kg in diet), 76.0%; in assay [1] (10.0 mg/kg in diet), 92.0%; in assay [1] (48.0 mg/kg in diet) it was 85.0%. Further, the inhibition at 0.04 µM at aldose reductase (4 × 10^-8 M) came out at 42%. In addition, at aldose reductase (10^-5 M), the inhibition at 10 µM is 100%. The inhibition at 1 µM on aldose reductase (10^-6 M) turned out to be 97%. The inhibition at 0.1 µM at aldose reductase (10^-7 M) is 87%. Besides, the “% Lowering Dulcitol Accumulation IN VIVO, L (lens)” value in assay [2] (1.0 mg/kg in diet) was 10.0%; in assay [2] (3.0 mg/kg in diet), 18.0%; in assay [2] (10.0 mg/kg in diet), 35.0%; in assay [2] (48.0 mg/kg in diet), 41.0%.
Regarding `CCN1C(=O)c2ccccc2C2(CC(=O)NC2=O)C1=O` (stereo not drawn) [H H CH2 CH3, 2-Ethylspiro[isoquinoline-4(1H),3'-pyrrolidine]-1,2',3,5'(2H)-tetrone], the “% Lowering Dulcitol Accumulation IN VIVO, N (sciatic nerve)” value in assay [1] (11 mg/kg in diet) is “NS”. The inhibition at 0.04 µM at aldose reductase (4 × 10^-8 M) worked out at 17%. Further, the inhibition at 1 µM at aldose reductase (10^-6 M) worked out at 76%. For the same compound, the inhibition at 0.1 µM on aldose reductase (10^-7 M) worked out at 27%. Also, the inhibition at 10 µM at aldose reductase amounted to 96%. Moreover, the “% Lowering Dulcitol Accumulation IN VIVO, L (lens)” value in assay [2] (11 mg/kg in diet) is recorded as “NS”.
Take `COc1ccc2c(c1)C(=O)N(Cc1ccc(Br)cc1F)C(=O)C21CC(=O)NC1=O` (stereo not drawn) [[2-[(4-Bromo-2-fluorophenyl)methyl]-7-methoxy]spiro[isoquinoline-4(1H),3'-pyrrolidine]-1,2',3,5'(2H)-tetrone]: the “% Lowering Dulcitol Accumulation IN VIVO, N (sciatic nerve)” value in assay [1] (25.7 mg/kg in diet) turned out to be 88.1%. On aldose reductase (4 × 10^-8 M), the inhibition at 0.04 µM stood at 72%. In addition, the inhibition at 10 µM on aldose reductase (10^-5 M) amounted to 97%. Moreover, at aldose reductase (10^-7 M), the inhibition at 0.1 µM was 90%. Further, the inhibition at 1 µM at aldose reductase amounted to 96%. Also, in assay [2] (25.7 mg/kg in diet), the “% Lowering Dulcitol Accumulation IN VIVO, L (lens)” value was 45.3%.
